Results on three compounds are retold here after US12643867B2, “Compositions and uses thereof” (University of Virginia Patent Foundation, priority 2017, dated 2026).

The structures appear in SMILES notation. Read-outs that look alike come from different tables or passages of the source.

The experiment deals with T1, recombinant DGKα (Rattus norvegicus, UniProt P51556).
T1 construct: expressed in transfected cells; host or cells: HEK293T (SILAC HEK293T for LC-MS)
In words: ADP-glo DAG phosphorylation substrate assay. It counts as biochemical. The method, then: The ADP-Glo DAG phosphorylation substrate assay was adapted from Sato et al (Sato et al., 2013). Transfected HEK cells expressing recombinant FLAG-DGKA were harvested in DPBS and centrifuged at 1400×g for 3 min. Supernatant was removed and 1 mL Lysis Buffer (50 mM HEPES (pH 7.2), 150 mM NaCl, 5 mM MgCL2, 1 mM DTT, 1 mM phenylmethylsulfonyl […], Phosphatase Inhibitor Cocktail 2 (Sigma-Aldrich), and EDTA-Free Protease Inhibitor Mini Tablets (Pierce)) was added and cells re-suspended. Solutions were sonicated (3×1 sec pulse, 20% amplitude) and then centrifuged at 400×g for 5 min. Supernatant was separated and protein concentrations were measured using the Bio-Rad DC protein assay and diluted in Lysis Buffer as appropriate. Samples were stored at −80° C. until use.
Micelles were prepared from lipid stocks as follows: Reaction Buffer (50 mM MOPS (pH 7.4). 1 mM DTT. 100 mM NaCl. 20 mM NaF, and |μM CaCl2)) was prepared in ddH2O. […] 1,2-dioleoyl-sn-glycerol (DG) and 1.2-dioleoyl-sn-glycero-3-phospho-L-serine (DOPS) in chloroform were mixed and then dried under nitrogen. Triton Buffer was added to the dried lipids to a final concentration of 10 mM DG and 8 mM DOPS. This solution was incubated at room temperature for 5 min with gentle shaking, followed by sonication (3×1 sec pulse, 20% amplitude). The micelles were then diluted 4-fold in reaction buffer to yield the final micelle buffer. […] of lysate was aliquoted into each well of a 96 well plate, followed by micelle buffer to a final volume of 20 μL. 19 μL of this mix was added to 1 μL of DMSO or inhibitor solution and incubated at 30° C. for 30 min. After incubation, 5 μL of reaction initiator was added to each well and mixed thoroughly, followed by aliquoting 5 μL of each reaction mixture to a 96-well half area black polystyrene plate and incubated at 30° C. for 30 min. At this point the procedure for the ADP-GloTM assay (Promega) was performed. 5 μL of ‘ADP-Glo Reagent’ was added to each well, mixed thoroughly, and allowed to incubate at 25° C. for 40 min. Then 10 μL of the ‘Kinase Detection Reagent’ was added to each well, mixed thoroughly, and allowed to incubate at 25° C. for 40 min. Luminescence was measured with no filter and an integration time of 1 sec per well on a BMG Labtech CLARIOstar plate reader.
The percentage of enzyme activity remaining was determined by comparing integrated band intensities or luminescence of inhibitor—with DMSO-treated samples for gel-based chemical proteomic or ADP-glo assays, respectively. For both chemical proteomic and ADP-glo methods, nonlinear regression analysis was used to determine the IC50 values from a dose-response curve generated using GraphPad Prism. Data are shown as mean±s.e.m. Determination of significance was performed by one-way ANOVA. All statistical analyses were performed using GraphPad Prism.
(In general: ADP-Glo first removes unused ATP, then detects ADP through luciferase.)

Where [1] appears, read: DGKα-HEK293T proteome, read-out: IC50, DGKα inhibition, DAG phosphorylation substrate assay.
Setting [2] is: read-out: 95% confidence intervals for IC50 values, substrate assay.

One may read the IC50 as the concentration at which inhibition is half-maximal.

T1 sequence (P51556 whole entry): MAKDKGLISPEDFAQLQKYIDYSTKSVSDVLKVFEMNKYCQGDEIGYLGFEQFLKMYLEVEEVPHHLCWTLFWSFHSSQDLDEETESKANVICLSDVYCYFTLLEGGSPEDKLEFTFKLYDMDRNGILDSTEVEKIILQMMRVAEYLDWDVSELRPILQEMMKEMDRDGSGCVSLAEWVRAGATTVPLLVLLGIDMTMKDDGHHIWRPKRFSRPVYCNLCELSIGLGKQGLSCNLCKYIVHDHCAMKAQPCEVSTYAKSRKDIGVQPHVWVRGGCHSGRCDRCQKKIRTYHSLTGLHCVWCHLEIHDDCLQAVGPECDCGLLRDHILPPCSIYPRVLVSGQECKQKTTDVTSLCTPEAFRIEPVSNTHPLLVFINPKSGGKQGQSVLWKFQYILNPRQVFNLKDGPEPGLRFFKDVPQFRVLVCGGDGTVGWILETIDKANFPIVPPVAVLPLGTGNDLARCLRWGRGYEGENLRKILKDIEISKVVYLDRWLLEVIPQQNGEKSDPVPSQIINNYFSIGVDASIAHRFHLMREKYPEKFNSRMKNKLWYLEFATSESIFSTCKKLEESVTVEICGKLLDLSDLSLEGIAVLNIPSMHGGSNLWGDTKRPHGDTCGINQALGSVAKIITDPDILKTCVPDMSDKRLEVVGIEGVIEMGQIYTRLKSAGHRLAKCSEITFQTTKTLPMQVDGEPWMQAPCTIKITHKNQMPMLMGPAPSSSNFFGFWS

For `Cc1nc2sccn2c(=O)c1CCN1CCC(=C(c2ccc(F)cc2)c2ccc(F)cc2)CC1` [Ritanserin], the “blockade of recombinant DGKα activity” value (100 μM compound) is reported as about 80%. Besides, the “blockade of DGKα activity” value (100 μM, from substrate- and chemical proteomic-assays) is on record as about 70%. The IC50 under setting [1] was determined as 25 µM and the IC50 under setting [2] was 20 to 30 µM.

In the case of `Fc1ccc(C(=C2CCNCC2)c2ccc(F)cc2)cc1` [RF001, 4-(Bis(4-fluorophenyl)methylene) piperidine], the IC50 is 223 µM under setting [1] and 120 to 414 µM under setting [2].

Regarding `O=C(c1ccc(F)cc1)C1CCN(CCn2c(=O)[nH]c3ccccc3c2=O)CC1` [Ketanserin], the “activity against DGKα in the substrate assay” value (100 μM) is listed as “negligible activity”.
